This is an account of results in patent publication US20230210853A1 (Halia Therapeutics, Inc., priority 2020, published 2023).

In test [1] the target is T1, full-length recombinant human NEK7 (Homo sapiens, UniProt Q8TDX7).
T1 construct: full-length recombinant human NEK7; GST (N); purchased SignalChem N09-10G; host or cells: Sf9 insect cells (baculovirus)
Briefly: NEK7 enzymatic assay ([33P]-ATP, casein substrate). The test is classed as biochemical. The procedure, abridged: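 GST-tagged enzyme, baculovirus-expressed in Sf9 cells, was mixed with casein in 20 mM Hepes pH 7.5, 10 mM MgCl2, 1 mM EGTA, 0.02% Brij35, 2 mM DTT, 1% DMSO. Compounds (3-fold series, 10 μM–0.5 nM) were preincubated 20 min at RT, then [33P]-ATP was added for 2 h at RT. P81 filter-bound radioactivity was expressed as % of vehicle activity and fitted to IC50.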

Another test relates to IL-1β release. Briefly: IL-1β release assay (PMA-differentiated THP-1 cells, LPS + nigericin, cleaved IL-1β by JESS). It is filed as cell-based. Particulars: Homo sapiens. As for the experimental part: (§1) Approximately 1.5 million THP-1 cells were plated in each well of a 6-well TC plate and incubated with 40 nM PMA in RPMI (10% FBS, 1% Penstrep) for 24 hours. The media was then removed and cells were rested in RPMI (10% FBS, 1% Penstrep) for 24 hours after which time the media was removed and cells were pre-treated for 2 hours with various concentrations of compounds of interest (typically serial 3-fold dilution in RPMI +5% FBS, concentrations ranging from 1 μM to 0.5 nM) in RPMI (5% FBS). The media was again removed and cells were incubated with 250 ng/mL LPS and compounds of interest (concentrations as above) in RMPI (5% FBS) for 2 hours. The media was removed for a last time and cells were incubated with 20 μM nigericin and compounds of interest (concentrations as above) in Opti-MEM for 30 minutes. Cell media was then collected and the amount of cleaved IL-1β was determined using a JESS instrument (Protein Simple) and standard protocols. Cleaved 1-PD antibody was obtained from Cell Signaling (catalogue #83186S) and was used at 1:20 dilution in antibody diluent 2. Protein Simple 1× anti-Rabbit HRP secondary antibody was used along with Protein Simple luminol and peroxide for chemiluminescent detection. Primary antibody incubation time was increased from 30 minutes to 60 minutes.
as §1, with “RPMI+5%” for “RPMI +5%”, “Il-1β” for “1-PD”

[2] abbreviates: Table 2a, recombinant human NEK7, casein substrate.
Setting [3] is: Table 2a, THP-1 cells, LPS + nigericin, read-out: II-1β release IC50.
Setting [4] is: Table 2b, recombinant human NEK7, casein substrate.
Setting [5] is: Table 2b, THP-1 cells, LPS + nigericin, read-out: Il-1β release IC50.
[6] abbreviates: comparative compounds of Structure (II).
Where [7] appears, read: THP-1, comparative compounds of Structure (II), read-out: IL-1β release IC50.
The mark [8] stands for this setting: Table 2e, recombinant human NEK7, casein substrate.
Setting [9] is: Table 2e, THP-1 cells, LPS + nigericin, read-out: IL-1β release IC50.
Setting [10] is: Table 2d, recombinant human NEK7, casein substrate.
Where [11] appears, read: 48 h, Table 2d, THP-1 cells, LPS + nigericin, read-out: IL-1β release IC50.

Where two headings read alike, the source gives them in different places.

T1 sequence (Q8TDX7 whole entry): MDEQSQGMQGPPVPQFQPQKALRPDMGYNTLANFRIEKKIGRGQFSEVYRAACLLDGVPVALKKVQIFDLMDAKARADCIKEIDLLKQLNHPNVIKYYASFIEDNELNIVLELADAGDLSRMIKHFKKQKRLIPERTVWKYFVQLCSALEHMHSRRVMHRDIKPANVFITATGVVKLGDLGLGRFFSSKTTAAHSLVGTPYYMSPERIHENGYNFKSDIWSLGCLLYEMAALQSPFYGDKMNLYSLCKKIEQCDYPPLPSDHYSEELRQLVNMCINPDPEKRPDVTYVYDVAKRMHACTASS

As a reminder, the IC50 is the concentration that gives 50% inhibition. On to `CC(C)(C)c1cc(NC(=O)Nc2ccc(-c3nn(C4CCN(C5COC5)CC4)c4ncnc(N)c34)cc2F)on1` [Ia-14, 1-(4-(4-amino-1-(1-(oxetan-3-yl)piperidin-4-yl)-1H-pyrazolo[3,4-d]pyrimidin-3-yl)-2-fluorophenyl)-3-(3-(tert-butyl)isoxazol-5-yl)urea], for which the IC50 (in test [1] (setting [2]); in the test on IL-1β release (setting [3])) was less than 150 nM throughout.
On to `Cc1cc2c(Oc3ccc(NC(=O)Nc4cc(C(C)(C)C)nn4-c4ccccc4)c(F)c3)ccnc2[nH]1` [Ib-5, 1-(3-(tert-butyl)-1-phenyl-1H-pyrazol-5-yl)-3-(2-fluoro-4-((2-methyl-1H-pyrrolo[2,3-b]pyridin-4-yl)oxy)phenyl)urea], for which the IC50 is more than 1500 nM in test [1] (setting [4]) and 151 to 300 nM with IL-1β release (setting [5]).
In the case of `Nc1ncnc2c1c(-c1ccc3c(c1Cl)CCN3C(=O)Cc1cc(C(F)(F)F)ccc1F)cn2C1CC1` [II-16, 1-(5-(4-amino-7-cyclopropyl-7H-pyrrolo[2,3-d]pyrimidin-5-yl)-4-chloroindolin-1-yl)-2-(2-fluoro-5-(trifluoromethyl)phenyl)ehtan-1-one], the IC50 in test [1] (setting [6]) was less than 150 nM; with IL-1β release (setting [7]), more than 1000 nM.
As to `Cc1[nH]c2nccc(Oc3ccc(NC(=O)Nc4cc(C(C)(C)C)nn4-c4ccccc4)c(F)c3)c2c1Cl` [Ib-14], the IC50 in test [1] (setting [4]) is 501 to 1500 nM; in the test on IL-1β release (setting [5]), more than 1000 nM.
Regarding `Cc1c[nH]c2nccc(Oc3ccc(NC(=O)Nc4cc(C(C)(C)C)nn4-c4ccccc4)c(F)c3)c12` [Ib-4, 1-(3-(tert-butyl)-1-phenyl-1H-pyrazol-5-yl)-3-(2-fluoro-4-((3-methyl-1H-pyrrolo[2,3-b]pyridin-4-yl)oxy)phenyl)urea], the IC50 in test [1] (setting [4]) was 501 to 1500 nM; with IL-1β release (setting [5]) it was less than 150 nM.
On to `Cc1c[nH]c2nccc(Oc3ccc(NC(=O)Nc4ccc(CN5CCN(C)CC5)c(C(F)(F)F)c4)c(F)c3)c12` [Ie-28, 1-(2-fluoro-4-((3-methyl-1H-pyrrolo[2,3-b]pyridin-4-yl)oxy)phenyl)-3-(4-((4-methylpiperazin-1-yl)methyl)-3-(trifluoromethyl)phenyl)urea], for which the IC50 (in test [1] (setting [8]); in the test on IL-1β release (setting [9])) was 151 to 300 nM throughout.
Turning to `CCN1CCN(Cc2ccc(NC(=O)Nc3ccc(Oc4ccnc5[nH]cc(Cl)c45)cc3F)cc2C(F)(F)F)CC1` [Ie-9, 1-(4-((3-chloro-1H-pyrrolo[2,3-b]pyridin-4-yl)oxy)-2-fluorophenyl)-3-(4-((4-ethylpiperazin-1-yl)methyl)-3-(trifluoromethyl)phenyl)urea], the IC50 in test [1] (setting [8]) is 501 to 1500 nM; with IL-1β release (setting [9]), less than 150 nM.
For the molecule `CN1CCN(Cc2ccc(NC(=O)Nc3ccc(Oc4ccnc5[nH]cc(C6CC6)c45)cc3F)cc2C(F)(F)F)CC1` [Ie-26, 1-(4-((3-cyclopropyl-1H-pyrrolo[2,3-b]pyridin-4-yl)oxy)-2-fluorophenyl)-3-(4-((4-methylpiperazin-1-yl)methyl)-3-(trifluoromethyl)phenyl)urea], the IC50 in test [1] (setting [8]) is 501 to 1500 nM; in the test on IL-1β release (setting [9]) it was less than 150 nM.
For the molecule `Nc1ncnc2c1c(-c1ccc(NC(=O)Nc3ccc(CN4CCOCC4)c(C(F)(F)F)c3)c(F)c1)cn2C1CC1` [Id-31, 1-(4-(4-amino-7-cyclopropyl-7H-pyrrolo[2,3-d]pyrimidin-5-yl)-2-fluorophenyl)-3-(4-(morpholinomethyl)-3-(trifluoromethyl)phenyl)urea], the IC50 in test [1] (setting [10]) was in the range of 501 to 1500 nM; in the test with IL-1β release (setting [11]), 301 to 500 nM.
Turning to `CC(C)(C)c1nnc(NC(=O)Nc2ccc(-c3nn(C4CC4)c4ncnc(N)c34)cc2F)s1` [Ia-33, 1-(4-(4-amino-1-cyclopropyl-1H-pyrazolo[3,4-d]pyrimidin-3-yl)-2-fluoropbenyl)-3-(5-(tert-butyl)-1,3,4-thiadiazol-2-yl)urea], the values for the concentration for half-maximal inhibition (IC50) (in test [1] (setting [2]); with IL-1β release (setting [3])) were 501 to 1500 nM and 301 to 500 nM, respectively.
For `Nc1ncnc2c1c(-c1ccc(NC(=O)Nc3cc(C4(C(F)(F)F)CC4)no3)c(F)c1)nn2C1CC1` [Ia-21], the IC50 (in test [1] (setting [2]); with IL-1β release (setting [3])) was less than 150 nM throughout.
In the case of `CC(C)(C)c1cc(NC(=O)Nc2ccc(Oc3ccnc4[nH]cc(Cl)c34)c(F)c2)n(-c2ccccc2)n1` [Ib-12, 1-(3-(tert-butyl)-1-phenyl-1H-pyrazol-5-yl)-3-(4-((3-chloro-1H-pyrrolo[2,3-b]pyridin-4-yl)oxy)-3-fluorophenyl)urea], the results for the IC50 (in test [1] (setting [4]); with IL-1β release (setting [5])) were 501 to 1500 nM and less than 150 nM, respectively.
In the case of `CCN1CCN(Cc2ccc(NC(=O)Nc3ccc(-c4nn(C5CC5)c5ncnc(N)c45)cc3F)cc2C(F)(F)F)CC1` [Id-49], the IC50 (in test [1] (setting [10]); in the test on IL-1β release (setting [11])) was less than 150 nM each time.
Regarding `CN1CCN(Cc2ccc(NC(=O)Nc3ccc(Oc4ccnc5[nH]cc(Cl)c45)cc3F)cc2C(F)(F)F)CC1` [Ie-1, 1-(4-((3-chloro-1H-pyrrolo[2,3-b]pyridin-4-yl)oxy)-2-fluorophenyl)-3-(4-((4-methylpiperazin-1-yl)methyl)-3-(trifluoromethyl)phenyl)urea], the IC50 is 151 to 300 nM in test [1] (setting [8]) and less than 150 nM in the test with IL-1β release (setting [9]).
`CN1CCC(=Cc2ccc(NC(=O)Nc3ccc(Oc4ccnc5[nH]cc(Cl)c45)cc3F)cc2C(F)(F)F)CC1` [Ie-20, 1-(4-((3-chloro-1-pyrrolo[2,3-b]pyridin-4-yl)oxy)-2-fluorophenyl)-3-(4-((1-methylpiperidin-4-ylidene)methyl)-3-(trifluoromethyl)phenyl)urea]: the results for the IC50 (in test [1] (setting [8]); in the test with IL-1β release (setting [9])) were 301 to 500 nM and less than 150 nM, respectively.
As for `CC(C)(C)c1cc(NC(=O)Nc2ccc(-c3nn(C4CC4)c4ccnc(N)c34)cc2F)on1` [Ia-30, 1-(4-(4-amino-1-cyclopropyl-1H-pyrazolo[4,3-c]pyridin-3-yl)-2-fluorophenyl)-3-(3-(tert-butyl)isoxazol-5-yl)urea], the concentration for half-maximal inhibition (IC50) (in test [1] (setting [2]); with IL-1β release (setting [3])) was less than 150 nM each time.
As to `CN1CCN(Cc2ccc(NC(=O)Nc3ccc(-c4nn(C5CC5)c5ccnc(N)c45)cc3F)cc2C(F)(F)F)CC1` [Id-30, 1-(4-(4-amino-1-cyclopropyl-1H-pyrazolo[4,3-c]pyridin-3-yl)-2-fluorophenyl)-3-(4-((4-methylpiperazin-1-yl)methyl)-3-(trifluoromethyl)phenyl)urea], the IC50 (in test [1] (setting [10]); with IL-1β release (setting [11])) was less than 150 nM throughout.
With `Nc1ncnc2c1c(-c1ccc3c(c1F)CCN3C(=O)Cc1ccc(F)c(C(F)(F)F)c1)nn2C1CCOCC1` [II-14, 1-(5-(4-amino-1-(tetrahydro-2H-pyran-4-yl)-1H-pyrazolo[3,4-d]pyrimidin-3-yl)-4-fluoroindolin-1-yl)-2-(4-fluoro-3-(trifluromethyl)phenyl)ethan-1-one], the IC50 in test [1] (setting [6]) is less than 150 nM; in the test with IL-1β release (setting [7]) it was more than 1000 nM.
Turning to `CC1(c2cc(NC(=O)Nc3ccc(-c4nn(C5CC5)c5ncnc(N)c45)cc3F)on2)CC1` [Ia-32, 1-(4-(4-amino-1-cyclopropyl-1H-pyrazolo[3,4-d]pyrimidin-3-yl)-2-fluorophenyl)-3-(3-(1-methylcyclopropyl)isoxazol-5-yl)urea], the IC50 in test [1] (setting [2]) is less than 150 nM; with IL-1β release (setting [3]), 151 to 300 nM.
On to `CC(C)n1nc(-c2ccc3c(c2F)CCN3C(=O)Cc2cc(C(F)(F)F)ccc2F)c2c(N)ncnc21` [II-11, 1-(5-(4-amino-1-isopropyl-1H-pyrazolo[3,4-d]pyrimidin-3-yl)-4-fluoroindolin-l-yl)-2-(2-fluoro-5-(trifluoromethyl)phenyl)ethan-1-one], for which the values for the IC50 (in test [1] (setting [6]); with IL-1β release (setting [7])) were less than 150 nM and more than 1000 nM, respectively.
Turning to `Nc1ncnc2c1c(-c1ccc(NC(=O)Nc3cc(C4(C(F)(F)F)CC4)on3)c(F)c1)nn2C1CC1` [Ia-25, 1-(4-(4-amino-1-cyclopropyl-1H-pyrazolo[3,4-d]pyrimidin-3-yl)-2-fluorophenyl)-3-(5-(1-(trifluoromethyl)cyclopropyl)isoxazol-3-yl)urea], the 50% inhibitory concentration (IC50) (in test [1] (setting [2]); in the test on IL-1β release (setting [3])) was less than 150 nM throughout.
